Test systems include ACHN; CCRF-CEM; DU-145; EKVX; HOP-62; K562; LOX IMVI; M14; MCF7; MDA-MB-435; OVCAR-5; OVCAR-8; RXF 393; SF-295; SK-MEL-28; SK-OV-3; T47D; TK-10; UACC-257.
What all share (experiment): growth of human tumour cells (NCI), 48 h

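Cells were grown in 96-well plates and exposed to each compound for 48 hours at five concentrations; endpoints were interpolated linearly between bracketing concentrations, or set to the highest concentration if not reached. GI50 = concentration required for 50% inhibition of growth.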 Activity calls are given as the source filed them. No stated cut-off is given here; in the data, active = GI50 up to about 1.1 µM and inactive = higher.

Turning to `CSC1=N/C(=C\c2ccco2)C(=O)N1CN1CCOCC1`, the GI50 is 43 µM (inactive) in the assay with ACHN; 30.4 µM (inactive) in the assay with CCRF-CEM; 42.3 µM (inactive) with DU-145; > 79.1 µM (inactive) in the assay with EKVX; > 100 µM (inactive) in the assay with HOP-62; 42.5 µM (inactive) with K562. The GI50 is 30.7 µM (inactive) in the assay with LOX IMVI; > 92.3 µM (inactive) in the assay on M14; 23 µM (inactive) in the assay with MCF7; > 62.2 µM (inactive) with MDA-MB-435; > 100 µM (inactive) with OVCAR-5; 58.9 µM (inactive) in the assay on OVCAR-8. Further, the GI50 in the assay with RXF 393 was 20.4 µM (inactive); with SF-295, > 100 µM (inactive); in the assay on SK-MEL-28, > 71.6 µM (inactive); with SK-OV-3 it was > 100 µM (inactive); in the assay on T47D, 48.1 µM (inactive); in the assay on TK-10, > 58.1 µM (inactive). Moreover, the GI50 in the assay on UACC-257 was 29.7 µM (inactive).

For `Clc1ccc2c(NCCCC/N=C/c3ccccc3)ccnc2c1`, the GI50 in the assay with ACHN is 12.5 µM (inactive); in the assay with CCRF-CEM, 6.49 µM (inactive); with DU-145 it was 20.7 µM (inactive); in the assay on EKVX it was 15.5 µM (inactive); in the assay on HOP-62 it was 10 µM (inactive); with K562, 5.01 µM (inactive). For the same compound, the GI50 is 13.5 µM (inactive) with LOX IMVI; 14.4 µM (inactive) in the assay on M14; 11.1 µM (inactive) with MCF7; 12.6 µM (inactive) with MDA-MB-435; 13 µM (inactive) in the assay on OVCAR-5; 11.2 µM (inactive) in the assay on OVCAR-8. In addition, the GI50 in the assay on RXF 393 was 4.09 µM (inactive); in the assay on SF-295 it was 10.4 µM (inactive); in the assay on SK-MEL-28, 15 µM (inactive); in the assay on SK-OV-3, 10.1 µM (inactive); in the assay with T47D, 12.6 µM (inactive); in the assay on TK-10 it was 18.6 µM (inactive). The GI50 in the assay on UACC-257 was 12.3 µM (inactive).

As to `NCCCCNCCCN1CC1`, the GI50 with ACHN was 0.902 µM (active); in the assay on CCRF-CEM, 0.951 µM (active); in the assay with DU-145, 1.77 µM (inactive); with EKVX, 3.15 µM (inactive); with HOP-62, 0.92 µM (active); with K562, 1.75 µM (inactive). Further, the GI50 with LOX IMVI was 0.284 µM (active); in the assay on M14, 2.89 µM (inactive); with MCF7 it was 20.6 µM (inactive); with MDA-MB-435, 1.15 µM (inactive); in the assay on OVCAR-5 it was 5.27 µM (inactive); in the assay with OVCAR-8 it was 0.883 µM (active). Also, the GI50 is 0.123 µM (active) with RXF 393; 4.09 µM (inactive) in the assay with SF-295; 1.72 µM (inactive) in the assay with SK-MEL-28; 0.977 µM (active) in the assay on SK-OV-3; 0.354 µM (active) in the assay on T47D; 2.04 µM (inactive) in the assay on TK-10. In addition, the GI50 in the assay with UACC-257 was 5.06 µM (inactive).

As for `CC1=CC(=O)[C@@H](O)[C@]2(C)[C@H]3[C@@]4(O)OC[C@@]35[C@@H](C[C@@H]12)OC(=O)C(OC(=O)CC1=CCCC1)[C@H]5[C@@H](C)[C@H]4O` (stereo partly specified), the GI50 was 0.0344 µM (active) in the assay with ACHN; 0.0197 µM (active) with CCRF-CEM; 0.0665 µM (active) in the assay on DU-145; 0.224 µM (active) with EKVX; 0.024 µM (active) with HOP-62; 0.0246 µM (active) in the assay with K562. The GI50 in the assay on LOX IMVI is < 0.0177 µM (active); with M14, 0.0294 µM (active); in the assay with MCF7 it was < 0.0142 µM (active); in the assay on MDA-MB-435, 0.0404 µM (active); in the assay on OVCAR-5, 0.105 µM (active); in the assay on OVCAR-8, 0.0279 µM (active). The GI50 in the assay on RXF 393 is 0.04 µM (active); in the assay with SF-295 it was 0.0649 µM (active); with SK-MEL-28 it was 0.0204 µM (active); in the assay on SK-OV-3 it was 0.551 µM (active); in the assay on T47D it was 0.0771 µM (active); in the assay with TK-10, 0.0408 µM (active). The GI50 in the assay with UACC-257 was 0.022 µM (active).

The record behind these values is ChEMBL document CHEMBL1201862, “PubChem BioAssay data set” (2004).
